One assay deals with PC3 cells. The assay can be described thus: Apoptosis detection by annexin V/PI assay. The assay is classed as cell-based, Human. To be noted: 25 μM, 6 h. From the text: High expression of COX-2 is found in various cancers, however, for PCa cell lines as well as tissue, contradictory results exist. We therefore tested anti-proliferative properties of Platin-A on androgen-responsive LNCaP and androgenunresponsive PC3 and DU145 PCa cells that differ in their malignant potentials. […] However, in LNCaP cells, Platin-A activity was better than an equimolar mixture of cisplatin and aspirin. In general, Pt(IV) compounds are less cytotoxic compared to their active Pt(II) form. […] To evaluate whether Platin-A-dependent inhibition of cancer cell proliferation is associated with apoptosis, Alexa Fluor® 488 annexin V/propidium iodide (PI) staining assay was carried out in PC3 cells and the data were analyzed by fluorescence assisted cell sorting. […]
PC3 cells were seeded at a density of 1×10^6 cells/mL on each well of a six well plate and allowed to grow overnight. […] Cell density was determined and cells were resuspended in 1× annexinVbinding buffer to 1×10^6 cells/mL preparing a sufficient volume to have 100 μL per assay. […] After the incubation period, 400 μL of 1× annexin-binding buffer was added to each sample, samples were gently mixed keeping the samples on ice, and the samples were analyzed on the flow cytometer immediately.

The next assay deals with IL-10. As to the kind of experiment: ELISA of IL-10 in LPS-stimulated RAW 264.7 macrophages. The format is cell-based, mouse. To be noted: preventive: pretreatment 10 μM 6 h, then LPS 12 h. From the text:
Chronic inflammation can be important for progression of human cancers, including PCa. Pro-inflammatory cytokines, TNF-α and interleukin (IL)-6, can be important for proliferation, survival, metastasis, and escape from immune surveillance of cancers. Chronic inflammation by activation of toll like receptors (TLRs) on cancer cells creates a tumor micro-environment which impairs the anti-tumor function of the immune system to allow to develop and survive. The cytokines TNF-α and IL-6 are potent activators of NF-κB, a key modulator of inflammation-induced carcinogenesis. Enhanced TNF-α secretion mediates cisplatin nephrotoxicity. The anti-inflammatory cytokine, IL-10 inhibits inflammatory and cytotoxic pathways in cisplatin-induced acute renal injury. […] First, we evaluated the effects of Platin-A, cisplatin, a combination of cisplatin and aspirin, and aspirin on pro-inflammatory cytokines IL-6, TNF-α, and anti-inflammatory IL-10 production in LPS-stimulated RAW 264.7 macrophages. […] To exclude the possibility that the decrease in the cytokines levels was simply due to the cytotoxicity of Platin-A, cell viability was evaluated. […]
RAW 264.7 cells were plated at a concentration of 10,000 cells/mL in 96 plates and allowed to grow overnight. […] The absorbance was recorded at 450 nm using a BioTek Synergy HT well plate reader.
A general note: In an ELISA, binding on a coated surface is turned into a signal by an enzyme label.

We go through one compound from US20170190726A9, “PRODRUG FOR RELEASE OF CISPLATIN AND CYCLOOXYGENASE INHIBITOR” (priority 2013, published 2017).

Molecules are shown by their SMILES.

For `CC(=O)Oc1ccccc1C(=O)[O][Pt]([NH2])([NH2])([OH])([Cl])[Cl]` [Platin-A], the “apoptosis induction (annexin V/PI)” value in the assay with PC3 cells is reported as “High level of apoptosis was induced”. Further, in the assay with IL-10, the “level of IL-10” value was “enhanced level of IL-10”.
